From patent US20260242390A1, “TOTAL SYNTHESES OF PORTIMINE A AND ANALOGUES THEREOF AS SMALL MOLECULE MODULATORS OF NMD3” (priority 2023, published 2026)
“Also recorded” adds a separate entry of the source.

Tested on: primary human PBMCs
Test: Toxicity to primary human PBMCs
Assay type: cell-based
Details: PBMCs 25k per well, 0.23 pM to 1 uM, 12 hr, compared to Jurkat
Protocol: Structurally related negative control ePA and PB are non-toxic in all cell types in the current concentrate range. PBMCs (25k per well), Jurkat (10k per well). Compound concentration was increased from […] to 1 uM, 4× per gradient, PBMCs using primary B cell media from Wesley (heat deactivated), and Jurkat using normal RPMI media and incubated for 12 hr.
FIG. 3. Initial SAR studies: Assessing activity of PAL functionalized PTMA analogs. […] (A) PA and Ph-PA show less toxic to healthy PBMCs compared to Jurkat cells. […] (B) Immunoblot of caspase-3 in Jurkat and PBMCs with indicated conditions.
• 1) Portimine A and its functional analogs show stereo-selective acute toxicity in cancer cells (FIG. 1). […] (B) Structure of portimine related analogs: phenyl-portimine A (Ph-PA, 36) and epi-portimine A (ePA, 38). Structure of fully functionalized portimine A-based epimeric probe pair: portimine A-diazirine-alkyne (PA-DA, 35-2) and epi-portimine A-diazirine-alkyne (ePA-DA, 35-1). (C) Cell viability analysis of portimine A and analogs. Jurkat cells were treated with increasing concentrations of portimine A and analogs for 24 hours. All presented data as mean of biological replicated experiments (n=3). […] Jurkat cells were treated with portimine A or analogs for 12 hours at 10 nM. […] Structurally related negative control ePA and PB are non-toxic in all cell types in the current concentrate range. PBMCs (25k per well), Jurkat (10k per well). […] Cell cycle analysis in Jurkat cells (FIG. 2). Jurkat cells were treated with 10 nM of indicated compounds for 24 hours, and propodium iodide was used to identify different stages of cells by flow cytometry. […] (A) PA and Ph-PA show less toxic to healthy PBMCs compared to Jurkat cells. […] (B) Immunoblot of caspase-3 in Jurkat and PBMCs with indicated conditions. […] (A) Pharmacokinetic studies of mouse intraperitoneal (i.p.) and oral (p.o.) administration for portimine (n=3). […] Impact of PA [0.3 or 1 mg/kg intraperitoneally] on MC38 tumor growth in WT mice (n=6). (C) Kaplan-Myer survival curve of WT MC38 tumor-bearing mice (n=6) after treatment with PA as described in (D). Mice were euthanized when tumor area exceeded 2000 mm^3. Statistical analysis was performed using ANOVA analysis followed by multiple comparisons test, * p≤0.05. Treatment condition: Jurkat (60 M per condition); PA-DA/ePA-DA concentration: 0.5 uM, PA or ePA: 5 uM; Incubate with probe with or without competitors (PA, ePA) for 30 min; UV irradiated for 20 min. (0.5 uM PA-DA add a no-UV condition), Standard pulldown & biotin-enrichment and western blot analysis (Elute condition: 2× sample buffer+500 uM biotin, boil for 20 mins); Primary antibody NMD3 (ProteinTech, 1:150), Actin (BioRad, 1:10000). […] Chemical proteomic profiling with PA-DA in Jurkat cells (A, B, C, G) and HCC1806 cells (D, E, F, H) show NMD3 is the primary target candidate of portimine A. Volcano plot in panels A and D show protein competition in cells treated with active photoaffinity probe PA-DA (500 nM) and DMSO or the active competitor portimine A (PA, […]), dotted lines indicate threshold of fold change <4, p-value>0.05. […] (I, J) Confirmation of PA-DA engagement of NMD3 in Jurkat and HCC1806 cells. […] Treatment condition: Jurkat (5M per well). Portimine A concentration: 2 nM-1000 nM; In total treat cell for 12 hours. […] Protein degradation of p53, Mcl1, Bid, Bim, Noxa can be rescued by MG132 or Epoxomicin. (B) NMD3 mRNA increased after PA treatment, but not ePA control compound. […]

Structure (SMILES) | toxicity to healthy / primary human PBMCs | toxicity to healthy / primary human PBMCs (listed as Portimine A)
C=CC1=C[C@@H]2[C@@H]3O[C@]4(CC[C@H](O4)C(C)C[C@@H](O)C3=O)CC(O)C3=NCC[C@@]32CC1 (some centres unmarked) [PA, portimine A] | substantially less toxic | non-toxic; also recorded: do not induce apoptosis or affect cell viability
C=CC1=C[C@@H]2[C@@H]3O[C@]4(CC[C@H](O4)C(C)C[C@@H](O)C3=O)C[C@@H](O)C3=NCC[C@@]32CC1 (stereo partly drawn) [ePA, epi-portimine A] | non-toxic; also recorded: non-toxicity | 
C=CC1=C[C@@H]2[C@@H]3OC4(CC[C@H](O4)C(C)C[C@@H](O)C3=O)CC(=O)C3=NCC[C@@]32CC1 (some centres unmarked) [PB, portimine B] | non-toxic; also recorded: non-toxicity | 
CC1C[C@@H](O)C(=O)[C@H]2O[C@]3(CC[C@@H]1O3)CC(O)C1=NCC[C@@]13CCC(c1ccccc1)=C[C@H]23 (some centres unmarked) [Ph-PA, phenyl-portimine A] | substantially less toxic | 
